According to US20030229145A1, “Pain treatment methods and compositions” (GRUENENTHAL GMBH, priority 2000, published 2003):
Where a name gives a salt, the structure may show the parent alone. Read-outs that look alike come from different tables or passages of the source.

Experiments:
[1] = test system: NMRI mice; test: Phenylquinone-induced writhing test on mice; type: in vivo; settings: 10 min; mouse, i.v., phenylquinone i.p. 10 minutes after substance
Description: The anti-nociceptive efficacy of the compounds according to the invention was studied on mice with the phenylquinone-induced writhing test, modified after I. C. Hendershot, J. Forsaith, J. Pharmacol. Exp. Ther. 125, 237-240 (1959). Male NMRI mice with a weight of from 25-30 g were used for this purpose. 10 minutes after intravenous administration of a compound according to the invention, groups of 10 animals per substance dose were intraperitoneally given 0.3 ml/mouse of a 0.02% strength aqueous solution of phenylquinone (phenylbenzoquinone, Sigma, Deisenhofen; production of the solution with the addition of 5% ethanol and storage in a water bath at 45° C.). The animals were placed individually in observation cages. The number of pain-induced stretching movements (so-called writhing reactions =straightening of the body with stretching of the hind extremities) were counted by means of a push-button counter 5-20 minutes after the phenylquinone administration. Animals which received physiological saline solution i.v. and phenylquinone […]. were also included as a control.
All the substances were tested in the standard dose of 10 mg/kg. The percentage inhibition (% inhibition) of the writhing reactions by a substance was calculated according to the following formula:
% inhibition=100−[WR of treated animals/ WR of control×100]

[2] = test system: Sprague Dawley rats; test: Mechanical hyperalgesia after paw incision on rats (paw incision model); type: in vivo
Description: In this model, the pain due to a wound in the vicinity of an incision on the plantar side of a hind paw of the rat is studied as a model of postoperative pain (Brennan, T. J., Vandermeulen, E. P., Gebhart, G. F., Pain (1996) 493-501). For this purpose, the retraction latency after point mechanical stimulation with an electronic von Frey filament is determined. After the paw incision, a mechanical hyperalgesia develops and remains stable over several days.
Male Sprague Dawley rats (body weight 200-300 g) are used. […]
By using an electronic von Frey filament (Digital Transducer Indicator Model 1601C, IITC Inc.), the retraction threshold of the paw, expressed in grams, after point mechanical stimulation is determined. For this purpose, the retraction threshold is measured five times per measurement point at an interval of 30 sec, and the individual median is determined, with the aid of which the average of the animal population is calculated. […]
To study the primary hyperalgesia, the retraction threshold on the ipsilateral paw is determined in the immediate vicinity of the incision, and also in the same position on the contralateral paw. […]
The Mann-Whitney U test is used for the significance calculation (p<0.05). For dose-dependent effects, the ED50 value is determined with the aid of a regression analysis.

[3] = test system: AMPA receptor; test: Affinity for the AMPA receptor; type: binding
[4] = test system: AMPA response of spinal neurons in the dorsal horn; test: Microiontophoresis on anaesthetized rats (evoked potentials of dorsal horn cells after application of excitatory amino acids); type: in vivo; settings: for ED50: Rattus norvegicus, Neuron, read-out: ED50 of inhibition of the AMPA response; for Inhibition of the AMPA response of spinal neurons (in words): microiontophoretic NMDA, kainate
Description: (derivation of evoked ascending potentials of individual cells in the dorsal horn of the spinal cord of anaesthetized rats after microiontophoretic application of excitatory amino acids (EAAs))
Male rats (Sprague Dawley, Janvier) with a body weight of from 280 g to 350 g were used. To induce the anaesthesia, inhalation anaesthetization was carried out with 4.0-5.0% halothane in a mixture of 200 ml/min oxygen (O2) and 400 ml/min dinitrogen monoxide (N2O) in a plexiglas anaesthetization box. During the preparatory phase, the halothane concentration was reduced to 1.0-1.5%. For the rest of the experiment, the inhalation anaesthetization was then replaced by bolus application of 40 mg/kg of chloralose in 3.5% Haemaccel solution (i.v.) and maintained by continuous infusion of 20 mg/kg/2.0 ml/h of chloralose. After the induction anaesthetization (4.0-5.0% halothane, see above), the tracheal tube was fitted through a syringe cylinder (20 ml Omnifix, Luer) shortened to about 20 mm, which was placed over the mouth and nose of the animals, with a 2.5% halothane concentration. The halothane concentration was then reduced to about 1.5%. Exhaled air was extracted through a closed system. For the application of test substances, a PE-20 (1.09*0.38mm) catheter was fitted into the dorsal branch of the left V. jugularis. A PE-50 tube (0.9569 mm*0.58 mm) was inserted into the left arteria carotis as a catheter for continuously monitoring the blood pressure. For the laminectomy, the animals were then placed in the prone position. An incision was made along the midline from the nape of the neck to the pelvic region. A blood-pressure drop frequently observed following this was treated by local application of lidocaine HCl with adrenaline (xylocitin 2% with adrenaline 0.001%, Jenapharm). The superficial tissue layers on both sides of the spinal column were removed in the vicinity of the vertebral bodies from sacral 2 (S2) to thoracic 8 (Th8). The musculature associated with the vertebral bodies was also removed by careful scraping with a scalpel. The actual laminectomy begins at vertebral body L2 (lumbar 2), after removing the processus spinalis from vertebra L3, and extends into the TH8 rostral region as far as where the large dorsal veins branch off laterally and caudally. The bones of the individual vertebral bodies were carefully removed in small stages by means of fine rongeurs. The musculature around TH8/9 and L1/S2 was also removed, so that immobilization clamps could be fitted later. Exposed tissue was protected against drying by applied 0.9% strength NaCI solution or thin PVC strips. […] In addition to the blood pressure, the local blood circulation was visually assessed, a pink skin color of the paws indicating normal microcirculation. […]

Row | Structure (SMILES) | ED50 [1] [mg/kg] | % MPE, retraction threshold of the ipsilateral paw ([2]; 100 mg/kg) | Affinity for the AMPA receptor (in words) [3] | ED50 [4] [mg/kg] | Inhibition of the AMPA response of spinal neurons (in words) ([4]; anaesthetized rats) | % MPE, retraction threshold of the ipsilateral paw ([2]; 464 mg/kg i.p.) | ED50 ([4]; anaesthetized rats, spinal neurons in the dorsal horn) [mg/kg]
1 | CCCCCC(C)C(N)C(=O)O (racemic) [Compound 2, rac-2-amino-3-methyl-octanoic acid hydrochloride as a 1:1 D/L mixture] | 28 |  |  |  |  |  | 
2 | NCC1(CC(=O)O)CCCCC1 [Gabapentin] | 38 | 66% MPE (100 mg/kg) | no affinity for the AMPA receptor | 106 | dose-dependent and selective inhibition of the AMPA response |  | 
3 | CCCC(CC)C(N)C(=O)O.Cl (racemic) [Compound 7, rac-amino-3-ethyl-hexanoic acid hydrochloride as a 1:1 D/L mixture] |  |  |  |  |  | 30% MPE (464 mg/kg i.p.) | 
4 | CCCC(CC)C(N)C(=O)[O-].[Na+] (racemic) |  |  | without having any AMPA affinity |  | selective inhibition of the AMPA response |  | 60
